Values quoted from earlier work, collected in patent US7459460B2, “Trisubstituted heteroaromatic compounds as calcium sensing receptor modulators” (Bristol-Myers Squibb Company, priority 2003, dated 2008).

Columns and labels:
[1] = OVX rats, oral administration, in the presence of an anti-resorptive agent
[2] = intravenous bolus injection
[3] = postmenopausal women, placebo-controlled trial

Compound | bone mass [1] | serum PTH [2] | reduce the risk of non-traumatic, non-spine fractures [3] [%] | reduce the risk of spine fractures [3] [%]
CC(C)(Cc1ccc2ccccc2c1)NC[C@@H](O)COc1cccc(Cl)c1C#N [NPS-2143] | increase in bone mass | transient increase in serum PTH |  | 
PTH peptide fragment (1-34): the PTH peptide fragment (1-34) of parathyroid hormone (SVSEIQLMHNLGKHLNSMERVEWLRKKLQDVHNF; Parathyroid hormone; UniProt P01270 32-65, looked up, fragment) |  |  | 54 | 65
